Key:
FAK [1] = target: T1, FAK (Homo sapiens, UniProt Q05397); test: Biochemical HTRF (FRET) assay of FAK kinase activity; details: 100 uM ATP; biotinylated PGT substrate; read-out: Mean FAK Biochem FRET IC50 (100 uM ATP)
Protocol: Biochemical HTRF (FRET) Assay Protocol
The ability of compounds to inhibit the kinase activity of recombinant FAK enzyme was determined by a HTRF (FRET) assay using Biotinylated PGT (B*PGT) as a peptide substrate. […] The reaction is stopped after 1 h and phosphotyrosine content of Biotin*PGT is measured using anti-phosphotyrosine specific Mab label with Eu3+-cryptate (Cisbio) and XL665 labeled streptavidin (Cisbio) by Homogeneous Time-Resolved Fluorescence (HTRF) method.
The Stock Reagents used are as follows:
Enzyme Buffer Reaction Buffer plus 0.03% BSA.
Development Buffer: 1 part 200 mM EDTA/50 mM Tris-HCl pH 7.4; 2 parts 1M KF; 0.07% BSA.
Assay Protocol: The compounds were serially diluted from 10 uM to […] (1:5 dil, 10 points) in kinase buffer (1×) containing 3% DMSO and added 5 uL to each well of a 384-well plate except negative and positive control wells. Only DMSO was added to positive and negative control wells. For negative control wells, no ATP was added but only 5 uL of B*PGT was added. B*PGT (final conc 7.5 ng/well) and ATP (final conc 100 uM) was added in 5 uL to all wells except negative control wells. Reaction was started by adding FAK enzyme (final conc 0.2 ng/well) in 5 ul of enzyme buffer per well and incubated at RT for 1 h. Phospho-tyrosine content of B*BGT was detected by adding PT66-Cryptate (1:100 dil) and XL665 conjugated streptavidin (1:100 dil) to each well in 7.5 uL development buffer and incubating for 1 h at RT. The plate was read on Victor machine

FAK [2] = target: T1, FAK; test: Cell-based capture ELISA for inhibition of FAK autophosphorylation [pY397] in MiaPaCa2 cells
Protocol: Cell-Based Assays for Inhibition of FAK Autophosphorylation: MiaPaCa2 and U87MG
ELISA kit from Invitrogen (KHO0441).
Reagents Provided in Biosource FAK [pY397]
The cells were then suspended in cell assay medium.

FAK [3] = target: T1, FAK; test: biochemical
[4] = MIA-PaCa2 cells on fibronectin, 2 h, no plasma, read-out: Mean FAK Cell Mechanistic IC50 MIA-PaCa2
[5] = MIA-PaCa2 cells, + 50% human plasma, read-out: Mean FAK Cell Mechanistic IC50 + 50% hP MIA-PaCa2

T1 sequence (Q05397 whole entry): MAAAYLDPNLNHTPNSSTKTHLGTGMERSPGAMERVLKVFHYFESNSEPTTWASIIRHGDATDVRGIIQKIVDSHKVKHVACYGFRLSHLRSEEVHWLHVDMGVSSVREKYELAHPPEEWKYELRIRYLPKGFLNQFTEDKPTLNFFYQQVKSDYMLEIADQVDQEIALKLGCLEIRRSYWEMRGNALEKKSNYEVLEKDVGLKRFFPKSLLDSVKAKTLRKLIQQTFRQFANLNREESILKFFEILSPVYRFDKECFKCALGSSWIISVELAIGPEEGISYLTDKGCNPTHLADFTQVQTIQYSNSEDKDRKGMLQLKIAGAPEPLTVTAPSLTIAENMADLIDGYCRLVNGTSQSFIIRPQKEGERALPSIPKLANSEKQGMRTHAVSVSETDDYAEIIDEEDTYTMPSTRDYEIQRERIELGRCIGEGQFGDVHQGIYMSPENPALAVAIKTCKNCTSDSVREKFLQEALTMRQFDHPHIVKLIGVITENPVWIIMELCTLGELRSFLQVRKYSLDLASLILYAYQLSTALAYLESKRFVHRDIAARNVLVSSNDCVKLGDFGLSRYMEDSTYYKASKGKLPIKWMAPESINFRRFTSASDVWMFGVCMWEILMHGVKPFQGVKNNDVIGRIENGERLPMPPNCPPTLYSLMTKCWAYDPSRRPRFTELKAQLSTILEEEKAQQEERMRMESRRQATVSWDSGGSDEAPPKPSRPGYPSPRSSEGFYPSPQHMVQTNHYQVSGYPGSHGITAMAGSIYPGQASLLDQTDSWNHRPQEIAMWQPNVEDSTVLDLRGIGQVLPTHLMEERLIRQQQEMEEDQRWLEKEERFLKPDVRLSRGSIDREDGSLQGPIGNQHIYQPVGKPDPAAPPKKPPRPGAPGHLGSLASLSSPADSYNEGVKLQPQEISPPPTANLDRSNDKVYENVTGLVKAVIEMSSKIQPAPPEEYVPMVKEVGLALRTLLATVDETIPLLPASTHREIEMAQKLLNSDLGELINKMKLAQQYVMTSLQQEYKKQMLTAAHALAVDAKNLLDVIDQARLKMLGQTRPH

CCOP(=O)(Cc1cccc(Nc2ncc(C(F)(F)F)c(NCc3cccnc3N(C)S(C)(=O)=O)n2)c1)OCC [Example 4, Diethyl [3-({4-[({2-[methyl(methylsulfonyl)amino]pyridin-3-yl}methyl)amino]-5-(trifluoromethyl)pyrimidin-2-yl}amino)benzyl]phosphonate]
IC50 (FAK [1]): 1000 to 10000 nM
IC50 (FAK [2]; [4]): 1000 to 10000 nM
IC50 (FAK [2]; [5]): 1000 to 10000 nM
IC50 (FAK [3]): < 1000 nM

CN(c1ncccc1CNc1nc(Nc2ccc(CP(=O)(O)O)cc2)ncc1C(F)(F)F)S(C)(=O)=O [Example 41, [4-({4-[({2-[Methyl(methylsulfonyl)amino]pyridin-3-yl}methyl)amino]-5-(trifluoromethyl)pyrimidin-2-yl}amino)benzyl]phosphonic acid]
IC50 (FAK [1]): 1000 to 10000 nM
IC50 (FAK [2]; [4]): 1000 to 10000 nM
IC50 (FAK [2]; [5]): 1000 to 10000 nM
IC50 (FAK [2]; MIA-PaCa2 cells, + 50% mouse plasma (Table 2), read-out: Mean FAK Cell Mechanistic IC50 + 50% mP MIA-PaCa2): 1000 to 10000 nM
IC50 (FAK [3]): < 1000 nM

CCOP(C)(=O)Cc1cccc(Nc2ncc(C(F)(F)F)c(NCc3cccnc3N(C)S(C)(=O)=O)n2)c1 (stereo not shown) [Example 46, Ethyl methyl[3-({4-[({2-[methyl(methylsulfonyl)amino]pyridin-3-yl}methyl)amino]-5-(trifluoromethyl)pyrimidin-2-yl}amino)benzyl]phosphinate]
IC50 (FAK [1]): 1000 to 10000 nM
IC50 (FAK [2]; [4]): < 1000 nM
IC50 (FAK [2]; [5]): < 1000 nM

CCOP(=O)(OCC)C(C)c1ccc(Nc2ncc(C(F)(F)F)c(NCc3cccnc3N(C)S(C)(=O)=O)n2)cc1 (stereo not shown) [Example 5, Diethyl {1-[4-({4-[({2-[methyl(methylsulfonyl)amino]pyridin-3-yl}methyl)amino]-5-(trifluoromethyl)pyrimidin-2-yl}amino)phenyl]ethyl}phosphonate]
IC50 (FAK [1]): < 1000 nM
IC50 (FAK [2]; [4]): < 1000 nM
IC50 (FAK [2]; [5]): < 1000 nM

CCOP(=O)(Cc1ccc(Nc2ncc(C(F)(F)F)c(NCc3cccnc3N(C)S(C)(=O)=O)n2)cc1)OCC [Example 1, diethyl [4-({4-[({2-[methyl(methylsulfonyl)amino]pyridin-3-yl}methyl)amino]-5-(trifluoromethyl)pyrimidin-2-yl}amino)benzyl]phosphonate]
IC50 (FAK [1]): < 1000 nM
IC50 (FAK [2]; [4]): < 1000 nM
IC50 (FAK [2]; [5]): < 1000 nM
IC50 (FAK [3]): < 1000 nM

CN(c1ncccc1CNc1nc(Nc2ccc(P(=O)(O)O)cc2)ncc1C(F)(F)F)S(C)(=O)=O [Example 6, [4-({4-[({2-[Methyl(methylsulfonyl)amino]pyridin-3-yl}methyl)amino]-5-(trifluoromethyl)pyrimidin-2-yl}amino)phenyl]phosphonic acid]
IC50 (FAK [1]): < 1000 nM
IC50 (FAK [2]; [4]): 1000 to 10000 nM
IC50 (FAK [3]): < 1000 nM

Source: patent US9096624B2 (OSI Pharmaceuticals, LLC, priority 2009, dated 2015)
